{
  "source": "patent US9586904B2",
  "about": "“Preparation of (−)-huperzine A” (priority 2013, dated 2017)",
  "experiment": "Solubility of huperzine A-chiral acid salts and of (±)-huperzine A in solvents",
  "type": "physicochemical",
  "source_text": "This invention first prepared a series of huperzine A-chiral acid salts.",
  "data": [
    {"substance": "(±)-huperzine A", "values": [
      {"measurement": "solubility in most solvents", "setting": "most solvents", "result": "rather poorly soluble"},
      {"measurement": "solubility in various single solvents", "setting": "various single solvents, during salt formation", "result": "very poor"}
    ]}
  ]
}
